Patent US12383527B2, “Methods for treating triple negative breast cancer using salvianolic acid B” (HOWARD UNIVERSITY, priority 2018, dated 2025)

Tests used:
[1] = Body weight and side effects of treated mice; assay type: in vivo; details: applicant's previous studies
Description: (§1) Human tumor xenografts in athymic nude mice. […] The animal protocol was approved by the Howard University Animal Care and Use Committee. Four-week-old female athymic nude mice (Nu/Nu) were obtained from Harlan Sprague Dawley (Indianapolis, IN). All mice were provided the Harlan Teklad #2018 Global 18% protein rodent diet and water ad libitum. Mice were housed in temperature-controlled rooms (74±2° F.) with a 12-hour alternating light-dark cycle. MDA cells (3×10^6/50 μL/spot) were subcutaneously injected into the both sides of lower back of mice using a 27-gauge needle. On day 10 after cell implantation, the mice with tumors (˜5 mm in diameter) were randomly divided into Sal-B treated, doxorubicin treated, and untreated groups (five mice per group), and were administrated Sal-B (80 mg/kg, three times per week), doxorubicin (4 mg/kg, every four weeks) and 0.9% saline (50 μl, three times per week), respectively, by intraperitoneal injection for a total of 37 days. […] All mice were sacrificed on day 37.

ceramides = experiment: Immunohistochemistry of ceramides in MDA tumor xenografts; assay type: in vivo, athymic nude mice; details: Sal-B 80 mg/kg three times per week; untreated control 2.3±0.7; P<0.05
Description: (§2) Human tumor xenografts in athymic nude mice. […] The animal protocol was approved by the Howard University Animal Care and Use Committee. Four-week-old female athymic nude mice (Nu/Nu) were obtained from Harlan Sprague Dawley (Indianapolis, IN). All mice were provided the Harlan Teklad #2018 Global 18% protein rodent diet and water ad libitum. Mice were housed in temperature-controlled rooms (74±2° F.) with a 12-hour alternating light-dark cycle. MDA cells (3×10^6/50 μL/spot) were subcutaneously injected into the both sides of lower back of mice using a 27-gauge needle. […]
Immunohistochemical staining was performed as described previously (Hao Y, et al., “Enforced expression of miR-101 inhibits prostate cancer cell growth by modulating the COX-2 pathway in vivo,” Cancer Prev Res (Phila), 2011; 4: 1073-1083). […] For the quantification, ten high-magnification (40×) fields were randomly selected from each slide of tumors and the positive cells were counted. The protein expression was expressed as the average number of positive cells per high magnification field. […]

MDA tumor xenografts = experiment: Human tumor xenografts in athymic nude mice, tumor weight; assay type: in vivo; details: Sal-B 80 mg/kg three times per week, intraperitoneal; day 37; mean±SD; untreated control 0.81±0.12 g
Description: as §1

cyclin B1 = experiment: Western blot of cyclin B1 expression in MDA and MCF-7 cells; assay type: cell-based, human; details: Sal-B 50 μM and 100 μM, 24 hours
Description: The expression of two cell cycle-related proteins—cyclin A and cyclin B1—was checked by Western blot. The expression of cyclin A and cyclin B1 was normalized by the expression of the internal control β-actin (lower panel). The cells were treated with 50 μM and 100 μM Sal-B, respectively, for 24 hours. Doxorubicin (0.1 μM and 1 μM) was used as a control. […] The results may be explained by that the cell cycle progression is controlled by a large set of molecules, although cyclin B1 is a key component in the control of cell cycle progression from G2 to M phase.
The immunohistochemical results were consistent with those from Western blotting (FIG. 7, panel A). Western blot analysis was used to determine the expression of apoptosis-related proteins Bcl-XL, survivin, caspase-3 and caspase-8 (FIG. 7, panel A). β-actin was used as an internal control for Western blotting. The MCD-7 and MDA cells were treated with Sal-B (50 μM and 100 μM) and doxorubicin (0.1 μM and 1 μM), respectively, for 24 hours. Proteins were extracted from the cells with RIPA lysis buffer (Santa Cruz Biotechnology, Santa Cruz, CA) and the protein concentrations were quantified with Bio-Rad protein quantification kit. Whole-cell proteins were separated on 8% SDS-polyacrylamide gel, transferred to the polyvinylidene difluoride membrane (Bio-Rad), and then probed with the indicated primary antibodies overnight at 4° C. Washed blots were then incubated with horseradish peroxidase-conjugated anti-rabbit, anti-mouse, or anti-goat antibody (Santa Cruz Biotechnology), respectively, for one hour at room temperature. Blots were developed and visualized with ECL detection system (Bio-Rad).

survivin = experiment: Immunohistochemical staining of survivin in MDA tumor xenografts; assay type: in vivo, athymic nude mice; details: Sal-B 80 mg/kg three times per week; versus untreated group
Description: as §2
Immunohistochemical staining was performed as described previously (Hao Y, et al., “Enforced expression of miR-101 inhibits prostate cancer cell growth by modulating the COX-2 pathway in vivo,” Cancer Prev Res (Phila), 2011; 4: 1073-1083). […] For the quantification, ten high-magnification (40×) fields were randomly selected from each slide of tumors and the positive cells were counted. The protein expression was expressed as the average number of positive cells per high magnification field.

O=C(/C=C/c1ccc(O)c2c1[C@H](C(=O)O[C@H](Cc1ccc(O)c(O)c1)C(=O)O)[C@@H](c1ccc(O)c(O)c1)O2)O[C@H](Cc1ccc(O)c(O)c1)C(=O)O [Sal-B, Salvianolic acid B]
side effects ([1]; Sal-B 80 mg/kg three times per week): no obvious side effects | side effects at higher dosage ([1]; Sal-B dosage higher than 80 mg/kg three times per week): weight loss in some mice | ceramide levels in tumor xenografts (ceramide positive cells counted) (ceramides): 9.6±2.4 | average tumor weight (MDA tumor xenografts): 0.26 ± 0.06 g | cyclin B1 expression (normalized to β-actin) (cyclin B1; MCF-7 cells): down-regulation | cyclin B1 expression (normalized to β-actin) (cyclin B1; MDA cells): down-regulation | survivin level in tumors (survivin): decreasing
